Measurements published in patent US8759535B2, “Substituted fused imidazole derivatives, pharmaceutical compositions, and methods of use thereof” (High Point Pharmaceuticals, LLC, priority 2010, dated 2014).
Structures can show the parent of a compound that is named as a salt.

These compounds were tested on HMOX1 (assay: HMOX1 Protein Assay (immunostaining of HO-1 in NHLF cells, GE InCell 1000)). Conditions: Homo sapiens, fold change above DMSO treated cells, 3 μM compound (asterisk), 16 h.
Assay type: cell-based
Outline: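 NHLF cells seeded overnight in FGM-2, then exposed to compound or DMSO vehicle for 16 h, fixed, and immunostained for HO-1 with Hoechst nuclear counterstain; imaged on InCell 1000. Values are fold change over DMSO-treated cells, generally at 5 μM (0.8% DMSO), with asterisked entries at 3 μM.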

In order of rising fold induction at 3 µM:
1. CN(C)CCCNC(=O)c1ccc2c(c1)nc(Nc1nc3ccc(OC(F)(F)F)cc3s1)n2C [Example 348, 1-Methyl-2-(6-trifluoromethoxy-benzothiazol-2-ylamino)-1H-benzoimidazole-5-carboxylic acid (3-dimethylamino-propyl)-amide]  22
2. C[C@@H](NC(=O)c1ccc2c(c1)nc(Nc1nc3ccc(C(F)(F)F)cc3s1)n2C)C(=O)N1CCN(C)CC1 [Example 470, 1-Methyl-2-(6-trifluoromethyl-benzothiazol-2-ylamino)-1H-benzoimidazole-5-carboxylic acid [(R)-1-methyl-2-(4-methyl-piperazin-1-yl)-2-oxo-ethyl]-amide]  24.5
3. Cn1c(Nc2nc3ccc(C(F)(F)F)cc3s2)nc2cc(C(=O)NCCF)ccc21 [Example 210, 1-Methyl-2-(6-trifluoromethyl-benzothiazol-2-ylamino)-1H-benzoimidazole-5-carboxylic acid (2-fluoro-ethyl)-amide]  29.9

Same assay, conditions: Homo sapiens, fold change above DMSO treated cells, 5 μM compound, 16 h

In order of rising fold induction at 5 µM:
1. CCOC(=O)c1cnc2c(c1)nc(Nc1nc3ccc(OC(F)(F)F)cc3s1)n2C [Example 71, 3-Methyl-2-(6-trifluoromethoxy-benzothiazol-2-ylamino)-3H-imidazo[4,5-b]pyridine-6-carboxylic acid ethyl ester]  4.2
2. COC(=O)c1ccc2c(c1)nc(Nc1nc3ccc(OC(F)(F)F)cc3s1)n2C [Example 2, 1-Methyl-2-(6-trifluoromethoxy-benzothiazol-2-ylamino)-1H-benzoimidazole-5-carboxylic acid methyl ester]  6.51
3. Cn1c(Nc2nc3ccc(OC(F)(F)F)cc3s2)nc2cc(C(=O)NC3CCNCC3)ccc21 [Example 93, 1-Methyl-2-(6-trifluoromethoxy-benzothiazol-2-ylamino)-1H-benzoimidazole-5-carboxylic acid piperidin-4-ylamide hydrochloride]  11.3
4. CN1CCCCC1CNC(=O)c1ccc2c(c1)nc(Nc1nc3ccc(Cl)cc3s1)n2C (stereo not drawn) [Example 318, 2-(6-Chloro-benzothiazol-2-ylamino)-1-methyl-1H-benzoimidazole-5-carboxylic acid (1-methyl-piperidin-2-ylmethyl)-amide]  11.9
5. Cn1c(Nc2nc3ccc(OC(F)(F)F)cc3s2)nc2cc(C(=O)NCc3nccs3)ccc21 [Example 96, 1-Methyl-2-(6-trifluoromethoxy-benzothiazol-2-ylamino)-1H-benzoimidazole-5-carboxylic acid (thiazol-2-ylmethyl)-amide]  12
6. CCn1c(Nc2nc3ccc(C(F)(F)F)cc3s2)nc2cc(C(=O)NC)ccc21 [Example 180, 1-Ethyl-2-(6-trifluoromethyl-benzothiazol-2-ylamino)-1H-benzoimidazole-5-carboxylic acid methylamide]  12.4
7. CCNC(=O)c1ccc2c(c1)nc(Nc1nc3ccc(Cl)cc3s1)n2C [Example 32, 2-(6-Chloro-benzothiazol-2-ylamino)-1-methyl-1H-benzoimidazole-5-carboxylic acid ethylamide]  12.6
8. CNC(=O)c1ccc2c(c1)nc(Nc1nc3ccc(Cl)cc3s1)n2C [Example 88, 2-(6-Chloro-benzothiazol-2-ylamino)-1-methyl-1H-benzoimidazole-5-carboxylic acid methylamide]  13
9. Cn1c(Nc2nc3ccc(OC(F)(F)F)cc3s2)nc2cc(C(=O)NCCCC(C)(C)CO)ccc21 [Example 229, 1-Methyl-2-(6-trifluoromethoxy-benzothiazol-2-ylamino)-1H-benzoimidazole-5-carboxylic acid (5-hydroxy-4,4-dimethyl-pentyl)-amide]  14.4
10. Cn1c(Nc2nc3ccc(Cl)cc3s2)nc2cc(C(=O)NCC(=O)NCCS(C)(=O)=O)ccc21 [Example 383, 2-(6-Chloro-benzothiazol-2-ylamino)-1-methyl-1H-benzoimidazole-5-carboxylic acid [(2-methanesulfonyl-ethylcarbamoyl)-methyl]-amide]  16.4
11. Cn1c(Nc2nc3ccc(Cl)cc3s2)nc2cc(C(=O)N[C@H]3CCNC3)ccc21 [Example 291, 2-(6-Chloro-benzothiazol-2-ylamino)-1-methyl-1H-benzoimidazole-5-carboxylic acid (S)-pyrrolidin-3-ylamide hydrochloride]  17
12. CCNC(=O)c1ccc2c(c1)nc(Nc1nc3ccc(OC(F)(F)F)cc3s1)n2CC(C)C [Example 165, 1-Isobutyl-2-(6-trifluoromethoxy-benzothiazol-2-ylamino)-1H-benzoimidazole-5-carboxylic acid ethylamide]  17.9
13. Cn1c(Nc2nc3ccc(OC(F)(F)F)cc3s2)nc2cc(C(=O)NCC3CCCO3)ccc21 (stereo not drawn) [Example 18, 1-Methyl-2-(6-trifluoromethoxy-benzothiazol-2-ylamino)-1H-benzoimidazole-5-carboxylic acid (tetrahydro-furan-2-ylmethyl)-amide]  20.1
14. COc1cc2c(cc1C(=O)O)nc(Nc1nc3ccc(OC(F)(F)F)cc3s1)n2C [Example 62, 6-Methoxy-1-methyl-2-(6-trifluoromethoxy-benzothiazol-2-ylamino)-1H-benzoimidazole-5-carboxylic acid]  20.3
15. Cn1c(Nc2nc3ccc(Cl)cc3s2)nc2cc(C(=O)N[C@@H]3CCCNC3)ccc21 [Example 309, 2-(6-Chloro-benzothiazol-2-ylamino)-1-methyl-1H-benzoimidazole-5-carboxylic acid (R)-piperidin-3-ylamide hydrochloride]  21.5
16. COCCNC(=O)c1ccc2c(c1)nc(Nc1nc3cc(OC(F)(F)F)ccc3s1)n2C [Example 116, 1-Methyl-2-(5-trifluoromethoxy-benzothiazol-2-ylamino)-1H-benzimidazole-5-carboxylic acid (2-methoxy-ethyl)-amide]  22.3
17. CN(C)CC(=O)N1CCC(NC(=O)c2ccc3c(c2)nc(Nc2nc4ccc(Cl)cc4s2)n3C)CC1 [Example 313, 2-(6-Chloro-benzothiazol-2-ylamino)-1-methyl-1H-benzoimidazole-5-carboxylic acid [1-(2-dimethylamino-acetyl)-piperidin-4-yl]-amide]  22.9
18. CC(O)COCCNC(=O)c1ccc2c(c1)nc(Nc1nc3ccc(OC(F)(F)F)cc3s1)n2C (stereo not drawn) [Example 244, 1-Methyl-2-(6-trifluoromethoxy-benzothiazol-2-ylamino)-1H-benzoimidazole-5-carboxylic acid [2-(2-hydroxy-propoxy)-ethyl]-amide]  28
19. Cn1c(Nc2nc3ccc(OC(F)(F)F)cc3s2)nc2cc(C(=O)NCCNS(C)(=O)=O)ccc21 [Example 322, 1-Methyl-2-(6-trifluoromethoxy-benzothiazol-2-ylamino)-1H-benzoimidazole-5-carboxylic acid (2-methanesulfonylamino-ethyl)-amide]  36
20. Cn1c(Nc2nc3ccc(Cl)cc3s2)nc2cc(C(=O)NCCOCCO)ccc21 [Example 235, 2-(6-Chloro-benzothiazol-2-ylamino)-1-methyl-1H-benzoimidazole-5-carboxylic acid [2-(2-hydroxy-ethoxy)-ethyl]-amide]  37.7
21. C[C@@H](CO)CCNC(=O)c1ccc2c(c1)nc(Nc1nc3ccc(OC(F)(F)F)cc3s1)n2C [Example 223, 1-Methyl-2-(6-trifluoromethoxy-benzothiazol-2-ylamino)-1H-benzoimidazole-5-carboxylic acid ((R)-4-hydroxy-3-methyl-butyl)-amide]  44.7
22. CN(CCO)C(=O)CNC(=O)c1ccc2c(c1)nc(Nc1nc3ccc(OC(F)(F)F)cc3s1)n2C [Example 390, 1-Methyl-2-(6-trifluoromethoxy-benzothiazol-2-ylamino)-1H-benzoimidazole-5-carboxylic acid {[(2-hydroxy-ethyl)-methyl-carbamoyl]-methyl}-amide]  46.4
23. Cn1c(Nc2nc3ccc(OC(F)(F)F)cc3s2)nc2cc(C(=O)NCC(=O)N3CC[C@H](N)C3)ccc21 [Example 412, 1-Methyl-2-(6-trifluoromethoxy-benzothiazol-2-ylamino)-1H-benzoimidazole-5-carboxylic acid [2-((S)-3-amino-pyrrolidin-1-yl)-2-oxo-ethyl]-amide hydrochloride]  47.6
24. COCC1CCN(C(=O)CNC(=O)c2ccc3c(c2)nc(Nc2nc4ccc(OC(F)(F)F)cc4s2)n3C)CC1 [Example 447, 1-Methyl-2-(6-trifluoromethoxy-benzothiazol-2-ylamino)-1H-benzoimidazole-5-carboxylic acid [2-(4-methoxymethyl-piperidin-1-yl)-2-oxo-ethyl]-amide]  58.4
25. CNC1CCN(C(=O)CNC(=O)c2ccc3c(c2)nc(Nc2nc4ccc(Cl)cc4s2)n3C)CC1 [Example 454, 2-(6-Chloro-benzothiazol-2-ylamino-1-methyl-1H-benzoimidazole-5-carboxylic acid [2-(4-methylamino-piperidin-1-yl)-2-oxo-ethyl]-amide hydrochloride]  62.2
26. CN1CCC(N(C)C(=O)CNC(=O)c2ccc3c(c2)nc(Nc2nc4ccc(Cl)cc4s2)n3C)C1 (stereo not drawn) [Example 395, 2-(6-Chloro-benzothiazol-2-ylamino)-1-methyl-1H-benzoimidazole-5-carboxylic acid {[methyl-(1-methyl-pyrrolidin-3-yl)-carbamoyl]-methyl}-amide]  72
27. COCCn1c(Nc2nc3ccc(Cl)cc3s2)nc2cc(C(=O)NCC3CCN(C(=O)CN(C)C)CC3)ccc21 [Example 315, 2-(6-Chloro-benzothiazol-2-ylamino)-1-(2-methoxy-ethyl)-1H-benzoimidazole-5-carboxylic acid [1-(2-dimethylamino-acetyl)-piperidin-4-ylmethyl]-amide]  75.7
